Tested on: vaginal proteome (human proteins in vaginal fluid)
Assay: MS/MS proteomic analysis of vaginal fluid pools, BV-affected women before (BV) and after rifaximin/placebo treatment: human proteins
Type: in vivo
Details: for Ratio: BV/R, Alpha-1-acid glycoprotein 1 / Ratio: BV/R, Alpha-1-acid glycoprotein 2 / Ratio: BV/R, Calcium-activated chloride channel regulator 4 / Ratio: BV/R, Catalase / Ratio: BV/R, Desmocollin-2 / Ratio: BV/R, Galectin-3-binding protein / Ratio: BV/R, Hemopexin / Ratio: BV/R, Ig mu chain C region / Ratio: BV/R, Immunoglobulin J chain / Ratio: BV/R, Keratin, type I cytoskeletal 10 / Ratio: BV/R, Keratin, type II cytoskeletal 1 / Ratio: BV/R, Keratin, type II cytoskeletal 2 epidermal / Ratio: BV/R, Keratin, type II cytoskeletal 5 / Ratio: BV/R, Lymphocyte-specific protein 1 / Ratio: BV/R, Myeloblastin / Ratio: BV/R, Neutrophil gelatinase-associated lipocalin / Ratio: BV/R, Perilipin-3 / Ratio: BV/R, Periplakin / Ratio: BV/R, Protein S100-A7 / Ratio: BV/R, Protein S100-A9 / Ratio: BV/R, Small proline-rich protein 3 / Ratio: BV/R, Superoxide dismutase [Cu—Zn] / Ratio: BV/R, Vitamin D-binding protein: vaginal fluid
Method: Proteomic analysis was performed on 9 pools of vaginal isolates, grouped according to the status of the BV infection: • H pool (from 41 healthy women); BV pool (from 39 BV-affected women); • A-R pool (from 2 women who were in remission after rifaximin treatment-group A); • A-N pool (from 8 women who were not in remission after rifaximin treatment-group A); • B-R pool (from 5 women who were in remission after rifaximin treatment-group B); • B-N pool (from 5 women who were not in remission after rifaximin treatment-group B); • C-R pool (from 4 women who were in remission after rifaximin treatment-group C); • C-N (from 5 women who were not in remission after rifaximin treatment-group C); • D-N (from 10 women who were not in remission after placebo treatment-group D). Scheme of the vaginal fluids collected for testing the diagnostic method is represented in FIG. 1.
In these figures are reported the peptides in the fractionated pools of healthy women, women affected by BV and peptides of women treated with rifaximin. The treatment with rifaximin was at dosage of 100 mg/day for 5 days; (remission, A-R; no remission, A-N), 25 mg/5 days (remission, B-R; no remission, B-N), 100 mg/2 days (remission, C-R; no remission, C-N), and placebo for 5 days (D-N). Two types of comparisons were carried out: (i) between fractionated pools of proteins from vaginal fluid of healthy women (HF) versus fractionated pool of proteins from vaginal fluid of women affected by bacterial vaginosis (BVF); (ii) between whole pools of proteins from vaginal fluid of women affected by BV treated by administering different doses of rifaximin or placebo before (BV) and after (A-R, A-N, B-R, B-N, C-R, C-N, D-N) treatment. Fractioned pools of proteins are obtained, e.g., by separating the proteins by separation on membrane filtration with different membrane porosity, prior to MS/MS analysis.
Nine volumes of acetone: HCl (10:1) were added to the supernatant of the vaginal rinsing and proteins were precipitated by centrifuging at 12000 g for 10 min. The protein pellet was dissolved in 1 mL of 70% ethanol and the sample was spun at 12000 g for 10 min. One mL of acetone was added and the proteins were further precipitated by centrifugation at 12000 g for 5 min. After removing supernatant, pellet was dried by SpeedVac concentrator (Thermo Savant ISS110, Thermo Fisher Scientific, Waltham, Mass.) and then stored at −20° C.
Protein extract was quantified using the 2-D Quant Kit (GE Healthcare, Uppsala, Sweden) according to the manufacturer's instructions.
Patients who were diagnosed for BV at the study visit V1 were included in a multicentre, double-blind, randomised, placebo-controlled study (EudraCT: 2009-011826-32), that was performed to compare the efficacy of different doses of rifaximin vaginal tablets versus placebo for the treatment of BV. The patients underwent a randomisation visit and were distributed into 4 treatment groups: group A received 100 mg rifaximin vaginal tablet once daily for 5 days (n=10), group B received 25 mg rifaximin vaginal tablet once daily for 5 days (n=10), group C received 100 mg rifaximin vaginal tablet once daily for the first 2 days and placebo vaginal tablet for the remaining 3 days (n=9), group D received placebo vaginal tablet once daily for 5 days (n=10). Study medication was administered intra-vaginally at bedtime. After 7 to 10 days from the end of the therapy a follow-up visit (V3) was performed. Remission was evaluated at V3 according to Amsel's criteria (<3) and Gram stain Nugent score (≦3) (Table 1).
Standardized vaginal rinsings with 2 mL of saline were collected for analysis at V1 and V3 by flushing and re-aspirating the fluid through a 22 Gauge needle in the left, central and right upper vaginal vaults. The vaginal rinsings were subsequently stored at −80° C. until use.
MS/MS analysis was carried out for H and BV pools and for the whole BV, A-R, A-N, B-R, B-N, C-R, C-N and D-N pools containing 50 μg of protein each. […]

[1] = A-R pool (100 mg × 5 days, in remission) vs BV pool before treatment
[2] = B-R pool (25 mg × 5 days, in remission) vs BV pool before treatment
[3] = B-R pool (25 mg × 5 days, remission) vs BV pool
[4] = B-R pool vs BV pool, differentially expressed only in B-R
[5] = C-R pool (100 mg × 2 days, in remission) vs BV pool before treatment

**Q.** What does the source list for CO[C@H]1/C=C/O[C@@]2(C)Oc3c(C)c(O)c4c(O)c(c5c(nc6cc(C)ccn65)c4c3C2=O)NC(=O)/C(C)=C\C=C\[C@H](C)[C@H](O)[C@@H](C)[C@@H](O)[C@@H](C)[C@H](OC(C)=O)[C@@H]1C [rifaximin]?
**A.** Ratio: BV/R, Alpha-1-acid glycoprotein 1 [1]: 2.3; Ratio: BV/R, Alpha-1-acid glycoprotein 2 [1]: 1.5; Ratio: BV/R, Calcium-activated chloride channel regulator 4 [1]: 2.9; Ratio: BV/R, Catalase [1]: 0.0; Ratio: BV/R, Desmocollin-2 [1]: −1.5; Ratio: BV/R, Galectin-3-binding protein [1]: 3.6; Ratio: BV/R, Hemopexin [1]: 1.9; Ratio: BV/R, Ig mu chain C region [1]: 1.8; Ratio: BV/R, Immunoglobulin J chain [1]: −1.5; Ratio: BV/R, Keratin, type I cytoskeletal 10 [1]: −2.8; Ratio: BV/R, Keratin, type II cytoskeletal 1 [1]: −3.9; Ratio: BV/R, Keratin, type II cytoskeletal 2 epidermal [1]: −4.3; Ratio: BV/R, Keratin, type II cytoskeletal 5 [1]: −16.3; Ratio: BV/R, Lymphocyte-specific protein 1 [1]: −2.8; Ratio: BV/R, Myeloblastin [1]: 0.0; Ratio: BV/R, Neutrophil gelatinase-associated lipocalin [1]: 0.0; Ratio: BV/R, Perilipin-3 [1]: −1.7; Ratio: BV/R, Periplakin [1]: −3.6; Ratio: BV/R, Protein S100-A7 [1]: 19.2; Ratio: BV/R, Protein S100-A9 [1]: 4.2; Ratio: BV/R, Small proline-rich protein 3 [1]: −6.6; Ratio: BV/R, Superoxide dismutase [Cu—Zn] [1]: 1.8; Ratio: BV/R, Vitamin D-binding protein [1]: 1.7; number of differentially expressed human proteins (B-N pool vs BV pool): 155; Ratio: BV/R, Alpha-1-acid glycoprotein 1 [2]: 7.8; Ratio: BV/R, Alpha-1-acid glycoprotein 2 [2]: 19.5; Ratio: BV/R, Calcium-activated chloride channel regulator 4 [2]: 0.0; Ratio: BV/R, Catalase [2]: 4.0; Ratio: BV/R, Desmocollin-2 [2]: −2.0; Ratio: BV/R, Galectin-3-binding protein [2]: 2.7; Ratio: BV/R, Hemopexin [2]: 9.0; Ratio: BV/R, Ig mu chain C region [2]: 8.1; Ratio: BV/R, Immunoglobulin J chain [2]: −4.1; Ratio: BV/R, Keratin, type I cytoskeletal 10 [2]: −3.5; Ratio: BV/R, Keratin, type II cytoskeletal 1 [2]: −6.2; Ratio: BV/R, Keratin, type II cytoskeletal 2 epidermal [2]: −7.1; Ratio: BV/R, Keratin, type II cytoskeletal 5 [2]: −12.7; Ratio: BV/R, Lymphocyte-specific protein 1 [2]: −3.2; Ratio: BV/R, Myeloblastin [2]: 3.1; Ratio: BV/R, Neutrophil gelatinase-associated lipocalin [2]: −1.5; Ratio: BV/R, Perilipin-3 [2]: −2.9; Ratio: BV/R, Periplakin [2]: −3.4; Ratio: BV/R, Protein S100-A7 [2]: 5.7; Ratio: BV/R, Protein S100-A9 [2]: 2.6; Ratio: BV/R, Small proline-rich protein 3 [2]: −6.6; Ratio: BV/R, Superoxide dismutase [Cu—Zn] [2]: 1.5; Ratio: BV/R, Vitamin D-binding protein [2]: 17.8; expression change of Kininogen-1 [3]: −88.6 ratio; expression change of Prostate stem cell antigen [3]: 63.8 ratio; expression change of Stanniocalcin-1 [3]: 113.1 ratio; number of differentially expressed human proteins (B-R pool vs BV pool): 214; expression change of Ig heavy chain V-III region BUT [4]: −1.6 ratio; expression change of Ig heavy chain V-III region VH26 [4]: −1.5 ratio; expression change of Kallikrein-13 [4]: 1.5 ratio; expression change of Neutrophil gelatinase-associated lipocalin [4]: 1.5 ratio; expression change of Zinc-alpha-2-glycoprotein [4]: −9.4 ratio; Ratio: BV/R, Alpha-1-acid glycoprotein 1 [5]: 0.0; Ratio: BV/R, Alpha-1-acid glycoprotein 2 [5]: −1.9; Ratio: BV/R, Calcium-activated chloride channel regulator 4 [5]: 1.8; Ratio: BV/R, Catalase [5]: 2.3; Ratio: BV/R, Desmocollin-2 [5]: 0.0; Ratio: BV/R, Galectin-3-binding protein [5]: 0.0; Ratio: BV/R, Hemopexin [5]: 1.7; Ratio: BV/R, Ig mu chain C region [5]: 0.0; Ratio: BV/R, Immunoglobulin J chain [5]: −2.2; Ratio: BV/R, Keratin, type I cytoskeletal 10 [5]: 0.0; Ratio: BV/R, Keratin, type II cytoskeletal 1 [5]: −2.3; Ratio: BV/R, Keratin, type II cytoskeletal 2 epidermal [5]: 0.0; Ratio: BV/R, Keratin, type II cytoskeletal 5 [5]: −2.5; Ratio: BV/R, Lymphocyte-specific protein 1 [5]: 0.0; Ratio: BV/R, Myeloblastin [5]: 4.0; Ratio: BV/R, Neutrophil gelatinase-associated lipocalin [5]: 0.0; Ratio: BV/R, Perilipin-3 [5]: −2.3; Ratio: BV/R, Periplakin [5]: −2.0; Ratio: BV/R, Protein S100-A7 [5]: 2.5; Ratio: BV/R, Protein S100-A9 [5]: 0.0; Ratio: BV/R, Small proline-rich protein 3 [5]: −4.4; Ratio: BV/R, Superoxide dismutase [Cu—Zn] [5]: 0.0
